Key:
[1] = system: rats Zucker Fa/Fa mâles; experiment: Model of decreased glucose tolerance with hyperinsulinaemia and hyperlipaemia, male Zucker Fa/Fa rats; assay type: in vivo; details: 5 mg/kg/day oral for 10 days, blood on day 11, control = 100; for AGL (%): free fatty acids; for TG (%): triglycerides
Procedure: Les animaux (rats Zucker Fa/Fa mâles) sont traités, chaque jour, pendant 10 jours en administrant, par voie orale, les composés de l'invention à la dose de 5 mg/kg/jour en suspension dans une solution à 20 % de gomme du Sénégal. Le 11ème jour, les animaux sont sacrifiés et le sang recueilli afin de déterminer la glycémie, les triglycérides plasmatiques et l'insuline immuno-réactive. D'autre part, les animaux sont pesés avant et après traitement.
Dans ces conditions, les composés de l'invention n'ont pas d'influence sur le taux de glucose circulant mais diminuent le taux de triglycérides et d'acides gras libres plasmatiques ainsi que celui de l'insuline immuno-réactive. Cette activité est égale ou supérieure à celle d'autres dérivés de thiazolidinedione de référence.

[2] = system: souris ob/ob; experiment: Hypoglycaemic activity in a non-insulin-dependent diabetes (NIDDM) model, ob/ob mouse; assay type: in vivo; details: ob/ob mice; for minimal effective dose: read-out: DMA (dose minimum active montrant une diminution de la glycémie de 10 à 15 %); for Pouvoir hypoglycémiant: at the equi-effective dose of Table 1, 4 days oral, base 100; for Dose provoquant le même effet hypoglycémiant: oral, daily for 4 days, glycaemia at J0 and J5, dose giving the same hypoglycaemic effect (base 100)
Excerpt: Les animaux (souris ob/ob) sont traités chaque jour, pendant 4 jours, en administrant par voie orale les composés de l'invention en suspension dans une solution à 20 % de gomme du Sénégal. Avant et après traitement, soit à J₀ et à J₅, le sang est prélevé par ponction du sinus orbital et la glycémie est déterminée. Le tableau 1 présente les doses des différents produits à administrer pour obtenir le même effet hypoglycémiant (base 100).
L'étude d'un effet-dose montre que la dose donnant une diminution de la glycémie initiale de 30 % : ED₃₀ pour le composé de l'exemple 2 est inférieure à 0,1 mg/kg alors que celle de la pioglitazone est comprise entre 5 et 10 mg/kg. La dose minimum active : DMA montrant une diminution de la glycémie de 10 à 15 % est de 0,1 mg/kg pour le composé de l'exemple 2 alors qu'elle est de 3 mg/kg pour la pioglitazone.

[3] = Mus musculus, po, dose-effect study

SMILES | Glycémie (%) [1] | Plasma insuline (%) [1] | AGL (%) [1] | TG (%) [1] | minimal effective dose [2, 3] | Pouvoir hypoglycémiant [2] | Dose provoquant le même effet hypoglycémiant [2] | ED30 ([2]; Mus musculus, po, dose-effect study, read-out: ED30 (dose donnant une diminution de la glycémie initiale de 30 %))
CCc1ccc(CCOc2ccc(CC3SC(=O)NC3=O)cc2)nc1 (stereo not drawn) [Pioglitazone] | 103% | 61% | 52% | 44% | 3 mg/kg | 100 | 10 mg/kg/jour | 
Cc1c(C)c2c(c(C)c1O)CCC(C)(COc1ccc(CC3SC(=O)NC3=O)cc1)O2 (stereo not drawn) [CS 045] |  |  |  |  |  | 100 | 150-200 mg/kg/jour | 
CC1(COc2ccc(CC3SC(=O)NC3=O)cc2)CCCCC1 (stereo not drawn) [Ciglitazone] |  |  |  |  |  | 100 | 50-100 mg/kg/jour | 
O=C1NC(=O)C(Cc2ccc3c(c2)CC[C@H](Cc2ccccc2)O3)S1 (stereo partly drawn) [Englitazone] |  |  |  |  |  | 100 | 10-20 mg/kg/jour | 
O=C1NC(=O)C(Cc2ccc3oc(Cc4ccc5ccccc5c4)cc3c2)S1 (racemic) [Exemple 2, 5-[2-(2-Naphtylméthyl)-5-benzofuranylméthyl] thiazolidine-2,4-dione] | 97% | 50% | 48% | 35% | 0.1 mg/kg | 100 | 5-10 mg/kg/jour | < 0.1 mg/kg

Reference: EP0559571A1, “Thiazolidine-2,4-dione derivatives, process for their preparation and pharmaceutical compositions containing them” (ADIR ET COMPAGNIE, priority 1992, dated 1993)
